From patent US20170184612A1, “USE OF LEUKOCYTES AND NOVEL BIOMARKERS IN THE DIAGNOSIS, CONFIRMATION, AND TREATMENT OF A NEUROLOGICAL DISORDER” (The Trustees of Columbia University in the City of New York, priority 2014, published 2017)

Tests used:
Type in all cases: cell-based, mouse
VM DA (TH+) neurons [1] = assay: Antigen processing and presentation, […]-MHC-I immunolabel; conditions: IFN-γ with extracellular SIINFEKL, positive control
Method: Following exposure of SN neuronal cultures to OVA or vehicle for 7 days, neurons were exposed to IFN-γ or saline for 72 h (note that these cultures were never exposed to […] (SEQ ID NO: 9)). The cultures were then double immunolabeled for TH and an antibody that recognizes only the MHC-I complex when is occupied by […] (SEQ ID NO: 9) ([…]-MHC-I). Occasional label of astrocytes, but not neurons, for […]-MHC-I was observed when the cultures were exposed to the vehicle, IFN-γ, or OVA alone (FIG. 5A). […] The results herein indicate that OVA had been processed to […] (SEQ ID NO: 9) within these mixed neuron/astrocyte cultures and loaded into the MHC-I groove within neuronal cytosol, and that the resulting complex was presented on the neuronal plasma membrane.
IFN-γ (R&D Systems) was used at a range of non-toxic concentrations for neurons or OT-1 cells (10 μg/ml-100 ng/ml, 72h). […]
Images were captured using a Leica SP5 microscope system. There was no fluorescence bleed-through of secondary antibodies under the conditions used. […]
In order to assess the proportion of TH^+ and MAP-2^+ neurons that expressed MHC-I^+, first TH^+ and MAP-2^+ neurons were counted in 24 fields surrounding the border of the well at 20× magnification. The number of TH^+ or MAP-2^+ neurons with intact soma and two or more neurites equal to or greater than the diameter of the cell soma was counted. […]

OT-1 CTL cells = assay: OT-1 CD8+ cell proliferation by BrdU incorporation; conditions: combination with IFN-γ; DC and VM neuronal cultures
Text: The capacity of CTLs to respond to MHC-I induced SN neurons was examined first, by following CTL proliferation using 5-bromo-2-deoxyuridine (BrdU) incorporation.
Primary DCs were obtained from mouse […] femur hematopoietic stem cells. In brief, mouse femur hematopoietic stem cells from bone marrow were harvested from the hind legs of 8 to 12-week old male wild-type C57BL/6J and plated at 2×10^6 cells/ml density in DC culture medium (DMEM supplemented with 10% FBS, lx non-essential amino acids, 2 mM L-glutamine, 1 mM sodium pyruvate and 20 mM HEPES). For differentiation to dendritic cells, 10 ng/ml of recombinant mouse GM-CSF was added to media. Cells were fed every 2 days with fresh DMEM containing GM-CSF, and the cultures were trypsinized after 8 days and plated at 4×10^5 cells/cm^2 density to be used for experiments the following day (Tallóczy et al., 2008). OT-1 CD8^+ and OT-2 CD4^+ T cell lines, a kind gift from Dr. Raphael Clynes (Department of Medicine and Microbiology, Columbia University Medical Center), express a transgene encoding T cell receptor that specifically recognizes […] (SEQ ID NO: 9) peptide (derived from OVA) bound to MHC-I H-2Kb or to MHC-II I-A/I-E (Hogquist et al., 1994). Activated primary OT-1 and OT-2 T cells were generated by the addition of […] […]
OT-1 CD8^+ cell proliferation was assessed by BrdU incorporation. […]

VM DA (TH+) neurons [2] = assay: OT-1 T cell cytotoxicity (killing) assay on VM DA neurons
Method: OT-1 CD8^+ cell proliferation was assessed by BrdU incorporation. For OT-1 T cell cytotoxicity assays, DC and VM (from C57BL/6 and 56.129P2-B2mtm1Unc/J mice) cell cultures were incubated with neuronal medium or neuronal medium containing 100 ng/ml of IFN-γ (R&D Systems). Neurons were loaded with or without […] (SEQ ID NO: 9) peptide (1 μM), and, subsequently in vitro activated OT-1 cells were added at a density of 100,000 cells/well and co-incubated for 24 h.
We used the same conditions for VM cell cultures with microglial medium previously stimulated with LPS, NM or α-syn instead of IFN-γ. Neurons were pre-incubated with IFN-γ and […] (SEQ ID NO: 9) peptide as above, and then with: 1) a pan-caspase general inhibitor (Z-VAD-FMK, 20 μM, 24h, IMGENEX); 2) a specific granzyme/perforin inhibitor (concanamycin A, 100 nM, 24h, Sigma Aldrich); 3) a specific Fas/FasL antagonist (Kp7-6, 1 mM, 24h, EMD Biosciences) and 4) concanamycin A and Kp7-6 together. OT-1 cells were then added to the culture (100,000 cells/well) and maintained for 24 h.
Following immunocytochemical staining of VM neurons, we assessed the proportion of surviving DA (TH^+) and non-DA cells (MAP-2^+, TH^−). Total numbers of TH^+ and MAP-2^+ neurons were counted in 24 fields surrounding the border of the well at 20× magnification. The number of surviving TH+ neurons with an intact soma and two or more neurites equal to or greater than the diameter of the cell soma was counted and normalized to the number in untreated cultures.

primary VM neurons = assay: MHC-I expression of VM neurons after microglial conditioned medium
Method: IFN-γ (R&D Systems) was used at a range of non-toxic concentrations for neurons or OT-1 cells (10 μg/ml-100 ng/ml, 72h). 12-well cell culture plates were pre-treated with LPS (500 ng/ml, Sigma-Aldrich), NM (5 μg/ml), α-syn, Nit-α-syn or Mut-α-syn (200 μg/ml, kindly provided by Peter Lansbury, Harvard University) for 72 h before plating 45,000-50,000 microglial cells/well for an additional 24h. A neutralizing IFN-γ antibody (1:500, PBL InterferonSource) was used to block IFN-γ released from microglia. VM neurons were incubated for 72 h with microglial medium pre-stimulated by LPS, NM, α-syn, Nit-α-syn or Mut-α-syn. As a control experiment, we directly incubated VM neurons with the same compounds in the absence of microglia. In another set of experiments, VM, cortical and striatal primary neurons were incubated for 72 h with microglial medium pre-stimulated by LPS, NM, α-syn. NM was induced in SN cultured neurons by using L-DOPA (Sulzer et al., 2000) (Sigma Aldrich). For foreign protein processing and subsequent antigen presentation, VM cultures were maintained for 7 days in either 1) BSA/serum-free neuronal medium, 2) BSA/serum-free supplemented with OVA (2.5 mg/ml), adding IFN-γ (100 ng/ml) or saline for an additional 72h.
Images were captured using a Leica SP5 microscope system. There was no fluorescence bleed-through of secondary antibodies under the conditions used. MHC-I label observed in the neuronal cultures obtained from wild type mice was absent in neurons from β2m KO mice (FIG. 3A).
In order to assess the proportion of TH^+ and MAP-2^+ neurons that expressed MHC-I^+, first TH^+ and MAP-2^+ neurons were counted in 24 fields surrounding the border of the well at 20× magnification. The number of TH^+ or MAP-2^+ neurons with intact soma and two or more neurites equal to or greater than the diameter of the cell soma was counted. Then, the fluorescent filter was inserted for each field to determine how many of these neurons also expressed MHC-I.

[3] = tested on: primary microglial cultures; assay: ELISA of IFN-γ released by microglia; conditions: primary microglial culture
Method: Briefly, for microglial cultures cells dissociated from 5 cortexes of 0-3 days old C57/B16 mice were seeded onto 75 cm^2 cell culture flasks in microglial culture medium (MEM supplemented with calf serum, glucose 45%, penicillin/streptomycin, insulin (25 mg/ml) and 200 mM glutamine) in a 5% CO^2 incubator at 37° C. (Sulzer et al., 2008). Two weeks later, microglia were detached from flasks by mild shaking and plated on 12 well-plates at a density of 45,000-50,000 microglial cells/well. For neuronal cultures, the area of interest was dissected and neurons were dissociated and plated at a density of 80,000/cm′ onto a layer of rat cortical glial cells grown on round glass coverslips and maintained in culture medium without added GDNF (glial cell line-derived neurotrophic factor) in a 5% CO^2 incubator at 37° C. for 5-9 days)(Sulzer et al., 2008). IFN-γ (R&D Systems) was used at a range of non-toxic concentrations for neurons or OT-1 cells (10 μg/ml-100 ng/ml, 72h). […] The concentration of IFN-γ released by microglia (plated as above) was measured by an ELISA kit (eBioscience) that detected the amount of this proinflammatory cytokine in a range of […].

Row | Substance | TH+ neurons with SIINFEKL-MHC-I immunolabel (VM DA (TH+) neurons [1]) [%] | CTL proliferation (OT-1 CTL cells) | neuronal death (VM DA (TH+) neurons [2]; combination of CTLs, IFN-γ and SIINFEKL, MHC-I null (KO) SN neurons) | TH+ neurons killed (VM DA (TH+) neurons [2]; combination of CTLs, IFN-γ and SIINFEKL, wild type neurons) [%] | cell surface MHC-I presentation by VM neurons (primary VM neurons; conditioned medium from microglia incubated 72 hours with the substance) | induction of neuronal MHC-I (primary VM neurons; cultures directly exposed, absence of microglial cells) | neuronal death (VM DA (TH+) neurons [2]; SIINFEKL, CTLs and medium conditioned by microglia exposed to the substance) | IFN-γ secretion, in words [3]
1 | SIINFEKL [8 amino acid peptide derived from OVA] | ~70 | induced similar CTL proliferation by both DC and VM neuronal cultures | no neuronal death was triggered | 55 | – | – | – | –
2 | lipopolysaccharide [LPS, reference compound] | – | – | – | – | elicited cell surface MHC-I presentation | no induction | caused extensive neuronal death | induced IFN-γ secretion
